In patent US9663473B2 (Actelion Pharmaceuticals Ltd, priority 2013, dated 2017):
pEC50: −log10 of the molar value.

These molecules were tested against T1, recombinant human ALX receptor (Homo sapiens, UniProt P25090) (assay: Intracellular calcium measurements (FLIPR), ALX receptor agonistic activity). Conditions: HEK293-hALXR-Gα16 cells, Fluo-4 calcium signal, normalized to WKYMVm 10 nM.
T1 construct: expressed in transfected cells; host or cells: HEK293 (HEK293-hALXR-Gα16)
T1 sequence (P25090 1-351): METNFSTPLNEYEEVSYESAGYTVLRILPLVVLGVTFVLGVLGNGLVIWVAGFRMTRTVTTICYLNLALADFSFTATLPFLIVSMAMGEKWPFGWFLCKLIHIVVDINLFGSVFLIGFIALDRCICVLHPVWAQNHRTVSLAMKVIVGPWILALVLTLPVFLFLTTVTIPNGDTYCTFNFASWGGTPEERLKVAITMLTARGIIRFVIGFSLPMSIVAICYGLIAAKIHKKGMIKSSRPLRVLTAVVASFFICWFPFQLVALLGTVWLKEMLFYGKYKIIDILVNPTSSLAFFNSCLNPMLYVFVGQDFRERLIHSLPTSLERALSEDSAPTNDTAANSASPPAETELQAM
Type: cell-based
Procedure, shortened: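 HEK293 cells co-expressing human ALX receptor and Gα16 were loaded with 1 μM Fluo-4 AM for 60 min at 37° C., then exposed to serially diluted compounds on FLIPR Tetra. Peak fluorescence above baseline (ex 488/em 540 nm) was normalized to 10 nM WKYMVm as high control.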
`COc1ccc(C[C@@H](NC(=O)NCCN2CCN(C(C)=O)CC2)c2nc3ccccc3[nH]2)cc1` [Example 390, (R)-1-(1-(1H-Benzo[d]imidazol-2-yl)-2-(4-methoxyphenyl)ethyl)-3-(2-(4-acetylpiperazin-1-yl)ethyl)urea] was tested, and the pEC50 was 5.57. `COc1ccc(C[C@@H](NC(=O)NC2(c3cccc(C)c3)CC2)c2nc3ccccc3[nH]2)cc1` [Example 354, (R)-1-(1-(1H-Benzo[d]imidazol-2-yl)-2-(4-methoxyphenyl)ethyl)-3-(1-(m-tolyl)cyclopropyl)urea] showed a pEC50 of 6.84. With `COc1ccc(C2(C(NC(=O)N[C@H]3CC[C@H](O)CC3)c3nc4ccccc4[nH]3)CC2)cc1` (relative stereo) [Example 2, 1-((1H-Benzo[d]imidazol-2-yl)(1-(4-methoxyphenyl)cyclopropyl)methyl)-3-(trans-4-hydroxycyclohexyl)urea] the pEC50 was 7.09. `COc1ccc(C[C@@H](NC(=O)NC2(c3ccc(C(F)(F)F)cc3)CC2)c2nc3ccccc3[nH]2)cc1` [Example 358, (R)-1-(1-(1H-Benzo[d]imidazol-2-yl)-2-(4-methoxyphenyl)ethyl)-3-(1-(4-(trifluoromethyl)phenyl)cyclopropyl)urea] was tested, and the pEC50 was 6.75. Molecule `COc1ccc(C[C@H](NC(=O)NC2CC(C)(C)NC(C)(C)C2)c2nc3ccccc3[nH]2)cc1` [Example 397, (S)-1-(1-(1H-benzo[d]imidazol-2-yl)-2-(4-methoxyphenyl)ethyl)-3-(2,2,6,6-tetramethylpiperidin-4-yl)urea] has a pEC50 of 6.09. With `COc1ccc(C[C@@H](NC(=O)NC2(c3cccc(Cl)c3)CC2)c2nc3ccccc3[nH]2)cc1` [Example 283, (R)-1-(1-(1H-Benzo[d]imidazol-2-yl)-2-(4-methoxyphenyl)ethyl)-3-(1-(3-chlorophenyl)cyclopropyl)urea] the pEC50 was 6.53. For `COc1ccc(C[C@@H](NC(=O)N[C@H](C)c2ccc(F)cc2)c2nc3ccccc3[nH]2)cc1` [Example 320, 1-((R)-1-(1H-Benzo[d]imidazol-2-yl)-2-(4-methoxyphenyl)ethyl)-3-((R)-1-(4-fluorophenyl)ethyl)urea], the pEC50 was 6.73. In the case of `COc1ccc(CC(NC(=O)NCc2ccon2)c2nc3ccccc3[nH]2)cc1` (centres unmarked) [Example 384, 1-(1-(1H-Benzo[d]imidazol-2-yl)-2-(4-methoxyphenyl)ethyl)-3-(isoxazol-3-ylmethyl)urea], the pEC50 was 5.91. With `COc1cc(F)c(CC(NC(=O)NC23CCC(O)(CC2)CC3)c2nc3ccccc3[nH]2)cc1F` (single isomer, unassigned; ent-1) [Example 357, 1-(1-(1H-Benzo[d]imidazol-2-yl)-2-(2,5-difluoro-4-methoxyphenyl)ethyl)-3-(4-hydroxybicyclo[2.2.2]octan-1-yl)urea (ent-1)] the pEC50 was 9.00. `COc1ccc(CC(NC(=O)NCCCN(C)C)c2nc3ccccc3[nH]2)cc1` (centres unmarked) [Example 388, 1-(1-(1H-Benzo[d]imidazol-2-yl)-2-(4-methoxyphenyl)ethyl)-3-(3-(dimethylamino)propyl)urea] showed a pEC50 of 5.97. In the case of `COc1ccc(C[C@@H](NC(=O)N[C@H](C)[C@@H](O)c2ccccc2)c2nc3ccccc3[nH]2)cc1` [Example 209, 1-((R)-1-(1H-Benzo[d]imidazol-2-yl)-2-(4-methoxyphenyl)ethyl)-3-((1S,2R)-1-hydroxy-1-phenylpropan-2-yl)urea], the pEC50 was 8.82. With `COc1ccc(C[C@@H](NC(=O)N[C@@H]2CCCN(C(C)=O)C2)c2nc3ccccc3[nH]2)cc1` [Example 140, 1-((R)-1-(1H-Benzo[d]imidazol-2-yl)-2-(4-methoxyphenyl)ethyl)-3-((R)-1-acetylpiperidin-3-yl)urea] the pEC50 was 7.21. Molecule `COc1c(F)c(F)c(CC(NC(=O)N[C@H]2CC[C@H](O)CC2)c2nc3ccccc3[nH]2)c(F)c1F` (single isomer, unassigned; ent-1) [Example 312, 1-(1-(1H-Benzo[d]imidazol-2-yl)-2-(2,3,5,6-tetrafluoro-4-methoxyphenyl)ethyl)-3-(trans-4-hydroxycyclohexyl)urea (ent-1)] has a pEC50 of 7.66. With “(R)—N-(1-(1H-Benzo[d]imidazol-2-yl)-2-(4-methoxyphenyl)ethyl)-4-acetylpiperazine-1-carboxamide [Example 135]” the pEC50 was 6.48. `COc1ccc(C[C@@H](NC(=O)NC2CC(C)(C)NC(C)(C)C2)c2nc3ccc(C#N)cc3[nH]2)cc1` [Example 153, (R)-1-(1-(6-Cyano-1H-benzo[d]imidazol-2-yl)-2-(4-methoxyphenyl)ethyl)-3-(2,2,6,6-tetramethylpiperidin-4-yl)urea] showed a pEC50 of 8.06. For `COc1ccc(CC(NC(=O)NC23CCC(O)(CC2)CC3)c2nc3ccccc3[nH]2)c(F)c1F` (centres unmarked) [Example 251, 1-(1-(1H-Benzo[d]imidazol-2-yl)-2-(2,3-difluoro-4-methoxyphenyl)ethyl)-3-(4-hydroxybicyclo[2.2.2]octan-1-yl)urea], the pEC50 was 8.18. In the case of `COc1ccc(C[C@@H](NC(=O)NCc2ccccc2)c2nc3ccccc3[nH]2)cc1` [Example 392, (R)-1-(1-(1H-Benzo[d]imidazol-2-yl)-2-(4-methoxyphenyl)ethyl)-3-benzylurea], the pEC50 was 5.62. `O=C(NC(Cc1ccc(Br)cc1)c1nc2cc(Cl)ccc2[nH]1)N[C@H]1CC[C@H](O)CC1` (relative stereo) [Example 81, 1-(2-(4-Bromophenyl)-1-(5-chloro-1H-benzo[d]imidazol-2-yl)ethyl)-3-(trans-4-hydroxycyclohexyl)urea] gave a pEC50 of 8.85. `COc1ccc(C[C@@H](NC(=O)NCC2CCCC2)c2nc3ccccc3[nH]2)cc1` [Example 92, (R)-1-(1-(1H-Benzo[d]imidazol-2-yl)-2-(4-methoxyphenyl)ethyl)-3-(cyclopentylmethyl)urea] was tested, and the pEC50 was 7.32. With `COc1ccc(CC(NC(=O)NCc2ccccc2OC)c2nc3ccccc3[nH]2)cc1` (centres unmarked) [Example 44] the pEC50 was 6.33. `CCn1ccc(C(C)NC(=O)N[C@H](Cc2ccc(OC)cc2)c2nc3ccccc3[nH]2)n1` (stereo partly drawn) [Example 289, 1-((R)-1-(1H-Benzo[d]imidazol-2-yl)-2-(4-methoxyphenyl)ethyl)-3-(1-(1-ethyl-1H-pyrazol-3-yl)ethyl)urea] gave a pEC50 of 7.23. With `COc1cc(F)c(CC(NC(=O)N[C@H]2CC[C@H](O)CC2)c2nc3cc(F)ccc3[nH]2)c(F)c1` (single isomer, unassigned; ent-1) [Example 366, 1-(2-(2,6-Difluoro-4-methoxyphenyl)-1-(5-fluoro-1H-benzo[d]imidazol-2-yl)ethyl)-3-(trans-4-hydroxycyclohexyl)urea (ent-1)] the pEC50 was 9.40. For `COc1ccc(CC(NC(=O)NCc2cccc(OC)c2)c2nc3ccccc3[nH]2)cc1` (centres unmarked) [Example 39, 1-(1-(1H-Benzo[d]imidazol-2-yl)-2-(4-methoxyphenyl)ethyl)-3-(3-methoxybenzyl)urea], the pEC50 was 6.29. `COc1cc(F)c(CC(NC(=O)N[C@H]2CC[C@H](O)CC2)c2nc3ccccc3[nH]2)c(F)c1` (single isomer, unassigned; ent-1) [Example 316, 1-(1-(1H-Benzo[d]imidazol-2-yl)-2-(2,6-difluoro-4-methoxyphenyl)ethyl)-3-(trans-4-hydroxycyclohexyl)urea (ent-1)] was tested, and the pEC50 was 8.49. With `COCC(Cc1ccccc1)NC(=O)N[C@H](Cc1ccc(OC)cc1)c1nc2ccccc2[nH]1` (stereo partly drawn) [Example 70, 1-((R)-1-(1H-Benzo[d]imidazol-2-yl)-2-(4-methoxyphenyl)ethyl)-3-(1-methoxy-3-phenylpropan-2-yl)urea] the pEC50 was 7.77. For `COc1ccc(CC(NC(=O)N[C@H]2CC[C@H](O)CC2)c2nc3cccnc3[nH]2)cc1` (relative stereo) [Example 427, 1-(1-(3H-imidazo[4,5-b]pyridin-2-yl)-2-(4-methoxyphenyl)ethyl)-3-(trans-4-hydroxycyclohexyl)urea], the pEC50 was 6.22. `COc1ccc(C[C@@H](NC(=O)N[C@@H](C)C2CCCCC2)c2nc3ccccc3[nH]2)cc1` [Example 347, 1-((R)-1-(1H-Benzo[d]imidazol-2-yl)-2-(4-methoxyphenyl)ethyl)-3-((S)-1-cyclohexylethyl)urea] gave a pEC50 of 6.44. Molecule `COc1ccc(CC(NC(=O)Nc2cc(-c3ccc(OC)cc3)n[nH]2)c2nc3ccccc3[nH]2)cc1` (centres unmarked) [Example 404, 1-(1-(1H-benzo[d]imidazol-2-yl)-2-(4-methoxyphenyl)ethyl)-3-(3-(4-methoxyphenyl)-1H-pyrazol-5-yl)urea] has a pEC50 of 6.80. `COC[C@H](NC(=O)N[C@H](Cc1ccc(OC)cc1)c1nc2ccccc2[nH]1)c1ccccc1` [Example 201, 1-((R)-1-(1H-Benzo[d]imidazol-2-yl)-2-(4-methoxyphenyl)ethyl)-3-((R)-2-methoxy-1-phenylethyl)urea] showed a pEC50 of 7.27. With `COc1ccc(CC(NC(=O)N[C@H]2CC[C@H](O)CC2)c2nc3ccc(F)cc3[nH]2)c(F)c1` (single isomer, unassigned; ent-2) [Example 370, 1-(1-(6-Fluoro-1H-benzo[d]imidazol-2-yl)-2-(2-fluoro-4-methoxyphenyl)ethyl)-3-(trans-4-hydroxycyclohexyl)urea (ent-2)] the pEC50 was 6.14. Molecule `COc1ccc(C[C@@H](NC(=O)NCc2ccccc2COC(C)C)c2nc3ccccc3[nH]2)cc1` [Example 58, (R)-1-(1-(1H-Benzo[d]imidazol-2-yl)-2-(4-methoxyphenyl)ethyl)-3-(2-(isopropoxymethyl)benzyl)urea] has a pEC50 of 7.64. `COc1ccc(C[C@@H](NC(=O)N2CC3CCC2CN3)c2nc3ccccc3[nH]2)cc1` (stereo partly drawn) [Example 122, N—((R)-1-(1H-Benzo[d]imidazol-2-yl)-2-(4-methoxyphenyl)ethyl)-2,5-diazabicyclo[2.2.2]octane-2-carboxamide] showed a pEC50 of 7.23.
